Experimental findings from ChEMBL document CHEMBL1221372, “Design and synthesis of new adamantyl-substituted antileishmanial ether phospholipids” (Bioorg Med Chem Lett, 2010) are described below.

A word on the IC50: it is the midpoint of a concentration-inhibition curve. Higher therefore signals lower potency.

One data set has as its system THP-1. Briefly: Cytotoxicity against human THP1 cells using propidium iodide and SYBR-14 staining after 72 hrs by flow cytometry. In kind it is cell-based. The following applies: THP-1, 72 h. On the technique in general: Flow cytometry measures light scatter and fluorescence of single cells or particles in a stream.
Data set [1] concerns Leishmania infantum. Kind of data set: Antileishmanial activity against intracellular amastigote form of Leishmania infantum MK-1 infected in human THP1 cells after 48 hrs using giemsa staining. Type of data set: functional, organism-based. The following applies: MK-1, THP-1, 48 h.
Data set [2] deals with Leishmania infantum. Briefly: Antileishmanial activity against intracellular amastigote form of Leishmania infantum MON 235 infected in human THP1 cells after 48 hrs using giemsa staining. The following applies: MON 235, THP-1, 48 h. Type of data set: functional, organism-based.
The nature of data set [3]: Selectivity index, ratio of IC50 for human THP1 cells to IC50 for intracellular amastigote form of Leishmania infantum MON 235. Type of data set: toxicity, cell-based, THP-1. The following applies: read-out: Ratio IC50.
Another data set is filed under the species Homo sapiens. Briefly: Half life in human. In kind it is ADME, organism-based. The following applies: in vivo.
Data set [4] can be described thus: Selectivity index, ratio of IC50 for human THP1 cells to IC50 for intracellular amastigote form of Leishmania infantum MK-1. Type of data set: toxicity, cell-based, THP-1. The following applies: read-out: Ratio IC50.

Molecules are shown by their SMILES.

Consider `CCCCCCOCCC12CC3CC(C1)CC(CCOP(=O)([O-])OCC[N+](C)(C)C)(C3)C2`, for which the IC50 with THP-1 is more than 50 µM; in the data set on Leishmania infantum [1], 17.1 µM.
As to `CCCCOCCC12CC3CC(C1)CC(CCOP(=O)([O-])OCC[N+](C)(C)C)(C3)C2`, the half-maximal inhibitory concentration (IC50) in the data set on THP-1 and in the data set on Leishmania infantum [1] was more than 50 µM each time.
Take `CCCCCCCCCCOCCC12CC3CC(C1)CC(CCOP(=O)([O-])OCC[N+](C)(C)C)(C3)C2`: the figures for the half-inhibitory concentration (IC50) in the data set on THP-1 and in the data set with Leishmania infantum [1] were 18.4 µM and more than 18.4 µM, respectively.
As to `C[N+](C)(C)[C@H]1CCC[C@@H]1OP(=O)([O-])OCCCCCCCCCCC=C1C2CC3CC(C2)CC1C3`, the IC50 in the data set on Leishmania infantum [2] came out at 0.3 µM; in the data set with THP-1 it was 75 µM. The selectivity ratio in data set [3] came out at 250.
`CCCCCCCCOCCC12CC3CC(C1)CC(CCOP(=O)([O-])OCC[N+](C)(C)C)(C3)C2`: the 50% inhibitory concentration (IC50) in the data set on THP-1 was more than 50 µM; with Leishmania infantum [1] it was 16.2 µM.
For `C[N+](C)(C)CCOP(=O)([O-])OCCC12CC3CC(CC(CCOCc4ccccc4)(C3)C1)C2` the same measures were more than 50 µM and 41.8 µM.
`C[N+]1(C)C2CCC1CC(=CCOP(=O)([O-])OCCCCCCCCCCC=C1C3CC4CC(C3)CC1C4)C2` registered a concentration for half-maximal inhibition (IC50) in the data set on Leishmania infantum [2] of 9.1 µM. Moreover, in data set [3], the selectivity ratio was found to be 16.2.
`C[N+](C)(C)CCOP(=O)([O-])OCCCCCCCCCCC=C1C2CC3CC(C2)CC1C3`: the half-inhibitory concentration (IC50) with Leishmania infantum [2] amounted to 0.031 µM. Also, the selectivity ratio in data set [3] stood at 1920.
In the case of `CCCCCCCCCCCCOCCC12CC3CC(C1)CC(CCOP(=O)([O-])OCC[N+](C)(C)C)(C3)C2`, the IC50 is 21.4 µM with THP-1 and more than 21.4 µM in the data set with Leishmania infantum [1].
Consider `C[N+](C)(C)CC#CCOP(=O)([O-])OCCCCCCCCCCC=C1C2CC3CC(C2)CC1C3`, for which half-maximal inhibition with Leishmania infantum [2] (IC50) was put at 5.2 µM. Besides, the selectivity ratio in data set [3] turned out to be 14.5.
Take `C[N+](C)(C)[C@H]1CCCC[C@@H]1OP(=O)([O-])OCCCCCCCCCCC=C1C2CC3CC(C2)CC1C3`: the IC50 in the data set with Leishmania infantum [2] amounted to 0.8 µM; with THP-1, 39.7 µM. The selectivity ratio in data set [3] was 49.6.
Molecule `C[N+]1(CCOP(=O)([O-])OCCCCCCCCCCC=C2C3CC4CC(C3)CC2C4)CCCCC1` returned an IC50 in the data set with Leishmania infantum [2] of 5.69 µM. Also, the selectivity ratio in data set [3] came to 29.6.
In the data set on Leishmania infantum [2], `C[N+]1(CCOP(=O)([O-])OCCCCCCCCCCC=C2C3CC4CC(C3)CC2C4)CCOCC1` showed an IC50 of 1.34 µM. The selectivity ratio in data set [3] worked out at 27.9.
In the data set filed under Homo sapiens, `CCCCCCCCCCCCCCCCOP(=O)([O-])OCC[N+](C)(C)C` [MILTEFOSINE] yielded a t1/2 of 100 min. Moreover, the 50% inhibitory concentration (IC50) with Leishmania infantum [2] amounted to 6.7 µM; in the data set on Leishmania infantum [1], 2.56 µM. Besides, the selectivity ratio in data set [3] stood at 8.7; in data set [4] it was 11.2.
